Legend:
[1] = system: Alternaria solani on tomato plants; test: Alternaria greenhouse study on tomato plants; details: for control of A. solani (in words): 75 ppm rate; for Average Lesion Size: 6 days after infection
Experimental: Tomato plants were inoculated with a conidial suspension (8,000 conidia/ml) of A. solani and maintained in a dew chamber for 24 hours. The plants were subsequently moved to the greenhouse for disease development.

Septoria tritici = test: Microtiter plate fungicidal screening (agar, spore inoculation); assay type: cell-based; details: fungal growth after 3-5 days at 20° C., C.V. class in parentheses
Stagnospora nodorum = test: as above; assay type: cell-based; details: fungal growth after 3-5 days at 20° C., C.V. class in parentheses; for IC50: Parastagonospora nodorum, read-out: IC50 S. nodorum
Botrytis cinerea = test: as above; assay type: cell-based; details: fungal growth after 3-5 days at 20° C., C.V. class in parentheses, read-out: IC50 B. cinerea
U. maydis = test: as above; assay type: cell-based, Ustilago maydis; details: Mycosarcoma maydis; fungal growth after 3-5 days at 20° C.; C.V. class in parentheses
Phytophthora infestans = test: microbe, parasite or virus in culture; assay type: cell-based; details: for IC50: Phytophthora infestans, read-out: IC50 P. infestans
[2] = system: Erysiphe graminis on barley plants; test: Erysiphe greenhouse study on barley plants; details: for Average Lesion Number: 5 days after infection

With `CO/C=C(/C(=O)OC)c1ccccc1Oc1cc(Oc2ccccc2C#N)ncn1` [Azoxystrobin, azoxystrobin] the “control of A. solani (in words)” value [1] was “slightly less control”, the “Average Lesion Size” value ([1]; 75 ppm) was “A (A = 0-10)” and the “control of A. solani” value ([1]; 300 ppm rate) was about 100%. For the same compound, the “Average Lesion Size” value ([1]; 300 ppm) was “A (A = 0-10)”.
With `CC(C(=O)Oc1ccc(Cl)c(Cl)c1)C(O)c1cccnc1` (stereo not drawn) [Compound 29, 3,4-Dichlorophenyl β-hydroxy-α-methyl-3-pyridinepropanoate] the “IC50 S. tritici” value (Septoria tritici) was “A (b)”, the IC50 (Stagnospora nodorum) was 16 to 25 µM and the IC50 (Botrytis cinerea) was over 25 µM. The IC50 (U. maydis) was 16 to 25 µM and the “IC50 P. infestans” value (Phytophthora infestans; fungal growth after 3-5 days at 20° C., C.V. class in parentheses) was “D (d)”.
`O=C(OCc1cccc(C(F)(F)F)c1)[C@H](c1ccccc1)[C@@H](O)c1cccnc1` [Compound 15, 3-(Trifluoromethyl)phenylmethyl syn-β-hydroxy-α-phenyl-3-pyridinepropanoate] was tested, and the “IC50 S. tritici” value (Septoria tritici) was “A (d)”, the “IC50 S. nodorum” value (Stagnospora nodorum) was “A (d)” and the IC50 (U. maydis) was over 25 µM. For the same compound, the IC50 (Phytophthora infestans) was over 25 µM.
`O=C(OCc1cccc(C(F)(F)F)c1)C(Cc1ccco1)C(O)c1cccnc1` (stereo not drawn) [Compound 20, 3-(Trifluoromethyl)phenylmethyl β-hydroxy-α-2-furylmethyl-3-pyridinepropanoate] was tested, and the IC50 (Septoria tritici; Zymoseptoria tritici, read-out: IC50 S. tritici) was under 5 µM, the “IC50 S. nodorum” value (Stagnospora nodorum) was “A (b)” and the IC50 (Botrytis cinerea) was over 25 µM. For the same compound, the IC50 (U. maydis) was over 25 µM and the IC50 (Phytophthora infestans) was over 25 µM.
In the case of `CCCC1COC(Cn2cncn2)(c2ccc(Cl)cc2Cl)O1` (centres unmarked) [Propiconazole, propiconazole], the “control of E. graminis” value ([2]; high (75 ppm) rate) is reported as about 100%, the “Average Lesion Number” value ([2]; inoculated data set, 4.7 ppm) is reported as “A (A = 0-50)” and the “Average Lesion Number” value ([2]; inoculated data set, 18.8 ppm) is reported as “A (A = 0-50)”. The “Average Lesion Number” value ([2]; inoculated data set, 75 ppm) was “A (A = 0-50)”, the “control of E. graminis (in words)” value ([2]; lower rates (19 and 5 ppm)) was “excellent control” and the “Average Lesion Number” value ([2]; uninoculated data set, 5 ppm) was “A (A = 0-10)”. For the same compound, the “Average Lesion Number” value ([2]; uninoculated data set, 19 ppm) was “A (A = 0-10)” and the “Average Lesion Number” value ([2]; uninoculated data set, 75 ppm) was “A (A = 0-10)”.
With `O=C(OCc1cccc(C(F)(F)F)c1)C(c1ccccc1Cl)C(O)c1cccnc1` (stereo not drawn) [Compound 21, 3-(Trifluoromethyl)phenylmethyl β-hydroxy-α-2-chlorophenyl-3-pyridinepropanoate] the “IC50 S. tritici” value (Septoria tritici) was “A (c)”, the “IC50 S. nodorum” value (Stagnospora nodorum) was “A (c)” and the IC50 (Botrytis cinerea) was over 25 µM. The “control of A. solani (in words)” value [1] was “no control”, the “Average Lesion Size” value ([1]; 75 ppm) was “D (D = +30)” and the “Average Lesion Size” value ([1]; 300 ppm) was “C (C = 21-30)”. For the same compound, the “decrease in lesion counts” value ([1]; high rate (300 ppm), activity was not significant) was “roughly 50%”, the “activity against E. graminis (in words)” value ([2]; both rates (300 and 75 ppm), both uninoculated and inoculated tests) was “excellent activity” and the “Average Lesion Number” value ([2]; inoculated data set, 75 ppm) was “A (A = 0-50)”. For the same compound, the “Average Lesion Number” value ([2]; inoculated data set, 300 ppm) was “A (A = 0-50)”, the “Average Lesion Number” value ([2]; uninoculated data set, 75 ppm) was “A (A = 0-10)” and the “Average Lesion Number” value ([2]; uninoculated data set, 300 ppm) was “A (A = 0-10)”. The IC50 (U. maydis) was over 25 µM and the IC50 (Phytophthora infestans) was over 25 µM.
In the case of `O=C(OCc1ccc(Cl)c(Cl)c1)C(CSc1nc2cccnc2s1)C(O)c1cccnc1` (stereo not drawn) [Compound 16, 3,4-Dichlorophenylmethyl β-hydroxy-α-{2-(thiazolo[5,4-b]pyridine)thiomethyl}-3-pyridinepropanoate], the “IC50 S. tritici” value (Septoria tritici) is reported as “A (c)”, the “IC50 S. nodorum” value (Stagnospora nodorum) is reported as “A (b)” and the IC50 (U. maydis) is reported as over 25 µM. The IC50 (Phytophthora infestans) was over 25 µM.
For `O=C(OCc1cccc(C(F)(F)F)c1)C(CSc1nccs1)C(O)c1cccnc1` (stereo not drawn) [Compound 5, 3-(Trifluoromethyl)phenylmethyl β-hydroxy-α-(2-thiazolylthiomethyl)-3-pyridinepropanoate], the “IC50 S. tritici” value (Septoria tritici) was “A (d)”, the IC50 (Stagnospora nodorum) was under 5 µM and the IC50 (Botrytis cinerea) was over 25 µM. It also gave an IC50 (U. maydis) of over 25 µM and an IC50 (Phytophthora infestans) of over 25 µM.
For `N#Cc1c(Cl)c(Cl)c(Cl)c(C#N)c1Cl` [Chlorothalonil, chlorothalonil], the “Average Lesion Size” value ([1]; 1250 ppm) was “A (A = 0-10)”, the “Average Lesion Size” value ([1]; 5000 ppm) was “A (A = 0-10)” and the “control of E. graminis (in words)” value ([2]; high rate) was “marginal level of control”. For the same compound, the “Average Lesion Number” value ([2]; inoculated data set, 1250 ppm) was “B (B = 51-100)”, the “Average Lesion Number” value ([2]; inoculated data set, 5000 ppm) was “D (D = +150)” and the “Average Lesion Number” value ([2]; uninoculated data set, 1250 ppm) was “B (B = 11-20)”. For the same compound, the “Average Lesion Number” value ([2]; uninoculated data set, 5000 ppm) was “C (C = 21-30)”.

Source: patent US20050277663A1, “3-Aryl-3-hydroxy-and 3-aryl-3-oxopropionic acid esters as fungicides” (priority 2004, published 2005)
